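Growth conditions: 96-well plates. Treatment: test compound, 48 hours, 5 concentrations. Analysis: linear interpolation between bracketing concentrations; unreached endpoints set to highest concentration. TGI: concentration producing complete growth inhibition.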

This note sets out measurements from PubChem BioAssay (NCI).

Holding throughout (assay): inhibition of tumour cell growth, NCI panel, 48 h
For test [1], the system named is HOP-92 NSCLC.
In test [2] the test system is ACHN renal.
Test [3] concerns NCI/ADR-RES ovarian.
Test [4] concerns SR leukemia.
Test [5] relates to OVCAR-3 ovarian.
Test [6] has as its system HL-60(TB) leukemia.
Test [7] has as its system MDA-MB-231 breast.
Test [8] deals with SF-268 CNS.
For test [9], the system named is CCRF-CEM leukemia.
Test [10] relates to MDA-MB-435.
Test [11] deals with CAKI-1 renal.
Test [12] deals with NCI-H460 lung.
Test [13] relates to RPMI-8226 leukemia.
The subject of test [14] is OVCAR-5 ovarian.
Test [15] concerns SN12C renal.
In test [16] the test system is SK-MEL-28 melanoma.
In test [17] the test system is NCI-H23 lung.
For test [18], the system named is SK-MEL-2 melanoma.
Test [19] has as its system HCT-116 colon.

For the molecule `O=C(CCC(NC(=O)OCc1ccccc1)C(=O)OCc1ccccc1)Nc1ccc(OCc2ccccc2)cc1` (centres undefined), the TGI in test [1] is over 31.6 µM; in test [2], over 31.6 µM; in test [3] it was over 31.6 µM; in [4], over 31.6 µM; in test [5] it was over 100 µM; in test [6], over 31.6 µM. Besides, the TGI in [7] was 25.6 µM; in test [8] it was over 31.6 µM; in [9], over 31.6 µM; in test [10], over 31.6 µM; in [11] it was over 31.6 µM; in [12], over 31.6 µM. Moreover, the TGI in test [13] is over 10 µM; in [14], over 100 µM; in test [15], over 31.6 µM; in test [16], over 31.6 µM; in test [17] it was over 31.6 µM; in test [18], over 10 µM. The TGI in test [19] stood at 17.1 µM.
As for `COC(=O)c1ccccc1CC1Cc2ccc3c(c2C1=O)CCC3` (centres undefined), the TGI in test [1] is 94.9 µM; in test [2], over 100 µM; in [3] it was over 100 µM; in test [4], over 100 µM; in [5] it was over 100 µM; in test [6], 84.8 µM. The TGI was over 100 µM in test [7]; over 100 µM in [8]; over 100 µM in test [9]; 78.7 µM in test [10]; over 100 µM in [11]; over 100 µM in [12]. In addition, the TGI in test [13], in [14], in test [15], in test [16], in [17] and in test [18] was over 100 µM in each case. The same molecule had a TGI in test [19] of over 100 µM.
For the molecule `COC(O)C(=O)c1c2c(cc3c1CC1(Cc4cc5c(cc4C1)CCC5)C3)CCC2` (centres undefined), the TGI in test [1] turned out to be 31 µM; in [2], 29.3 µM; in test [3] it was 34 µM; in [4], 15.1 µM; in test [5], 28.9 µM; in test [6] it was 44.3 µM. Moreover, the TGI in test [7] was determined as 29.2 µM; in test [8] it was 36.1 µM; in test [9], 20.5 µM; in test [10], 6.58 µM; in test [11] it was 37.4 µM; in [12], 42.7 µM. Moreover, the TGI in test [13] turned out to be 30 µM; in test [14], 33.5 µM; in test [16], 35.7 µM; in test [17], 33.1 µM; in [18] it was 32.1 µM; in test [19], 20.9 µM.
In the case of `CSc1ncc2c(C#N)c3sc4ccccc4n3c(=O)c2n1`, the TGI in [1], in test [2], in test [3], in test [4], in [5] and in [6] was over 100 µM throughout. The TGI in [7] was over 100 µM; in [8], 52.9 µM; in test [9], over 100 µM; in [10] it was over 100 µM; in test [11], over 100 µM; in [12], over 100 µM. The TGI in test [13], in test [14], in test [15], in test [16], in [17] and in [18] was over 100 µM in each case. In [19], the TGI is over 100 µM.
In the case of `O=C1c2ccccc2S(=O)(=O)c2c1cccc2[N+](=O)[O-]`, the TGI turned out to be 9 µM in test [1]; 8.04 µM in [2]; 6.55 µM in [3]; 5.28 µM in test [4]; 2.51 µM in test [5]; 4.97 µM in test [6]. For the same molecule, the TGI in test [7] was 5.36 µM; in [8], over 9.38 µM; in test [9], 4.19 µM; in test [10], 3.64 µM; in test [11], 9.83 µM; in test [12], over 10 µM. For the same molecule, the TGI was 5.94 µM in [13]; over 10 µM in test [14]; 6.56 µM in test [15]; 5.25 µM in test [16]; over 8.17 µM in test [17]; over 10 µM in test [18]. The same molecule displayed a TGI in test [19] of 2.63 µM.
With `O=Nc1c(O)cc(Nc2ccc(Br)cc2)c2ccccc12`, the TGI in test [1] was 45.2 µM; in [2], 25.1 µM; in test [3] it was 33.1 µM; in [4] it was 72.4 µM; in test [5] it was over 51.9 µM; in test [6], 55.9 µM. Besides, the TGI in test [7] was 48.3 µM; in test [8], over 55.6 µM; in [9] it was over 100 µM; in test [10] it was 3.37 µM; in [11], 23.7 µM; in [12], 11 µM. Besides, the TGI in test [13] was over 86.9 µM; in test [14] it was 29.8 µM; in [15], over 63.6 µM; in test [16], 4.2 µM; in [17], 3.47 µM; in test [18], 3.64 µM. This molecule also registered a TGI in test [19] of over 59.2 µM.
In the case of `O=c1c2nn3c(=O)n(-c4ccccc4)c(=O)c3nn2c(=O)n1-c1ccccc1`, the TGI in test [1], in test [2], in test [3], in test [4], in test [5] and in test [6] was over 100 µM throughout. The TGI in test [7], in test [8], in [9], in test [10], in test [11] and in test [12] was over 100 µM throughout. Further, the TGI in test [13], in [14], in [15], in test [16], in test [17] and in test [18] was over 100 µM throughout. The TGI in [19] is over 100 µM.
For the molecule `O=C1C=C2C(=NC34CCCCC3C(c3ccccc3)C3=C(c5ccccc5CC3)N24)c2ccccc21` (centres undefined), the TGI in test [1], in test [2], in [3], in test [4], in test [5] and in test [6] was over 10 µM throughout. Besides, the TGI in test [7], in test [8], in test [9], in [10], in test [11] and in [12] was over 10 µM throughout. For the same molecule, the TGI in [13], in [14], in [15], in [16], in test [17] and in test [18] was over 10 µM each time. Further, the TGI in [19] is over 10 µM.
For `O=c1cc(NNc2ccccc2)[nH]c(=S)[nH]1`, the TGI was over 100 µM in test [1]; over 100 µM in [2]; over 100 µM in [3]; 70.3 µM in test [4]; 31.4 µM in [5]; 62.6 µM in [6]. Further, the TGI in [7] was 65.2 µM; in test [8] it was over 100 µM; in [9], 88.6 µM; in test [10] it was over 100 µM; in test [11], 35.9 µM; in [12], over 100 µM. For the same molecule, the TGI in test [13] was 58.6 µM; in test [14], over 100 µM; in [15] it was over 100 µM; in test [16] it was over 100 µM; in test [17], over 100 µM; in test [18], 61.3 µM. Also, the TGI in test [19] was found to be 53.9 µM.
For `Cc1nc2cccc(F)c2c(=O)n1C1CCCCNC1=O` (centres undefined), the TGI in [1], in [2], in test [3], in test [4], in [5] and in test [6] was over 10 µM each time. Further, the TGI in test [7], in test [8], in test [9], in test [10], in [11] and in test [12] was over 10 µM each time. Also, the TGI in test [13], in test [14], in test [15], in [16], in test [17] and in test [18] was over 10 µM throughout. In addition, in [19], the TGI is over 10 µM.
Consider `O=CC(=C(I)I)c1ccccc1`, for which the TGI in [1] is 6.57 µM; in test [2] it was 8.8 µM; in [3], over 38.5 µM; in [4], 1.25 µM; in test [5] it was 3.69 µM; in [6], 0.275 µM. Moreover, the TGI stood at 5.57 µM in test [7]; 9.97 µM in test [8]; 0.65 µM in test [9]; 5.65 µM in test [10]; 7.83 µM in [11]; 40.9 µM in [12]. Moreover, the TGI was 2.62 µM in test [13]; 15.1 µM in test [14]; 6.39 µM in test [15]; 7.36 µM in test [16]; 4.97 µM in [17]; 23.2 µM in [18]. The TGI in test [19] was determined as 2.78 µM.
`O=C(CCCN1CCC2(CC1)OC(=O)N(c1ccccc1)C2=O)c1ccccc1`: the TGI in test [1], in [2], in test [3], in test [4], in [5] and in test [6] was over 100 µM in each case. The TGI in test [7] was 93.4 µM; in [8], over 100 µM; in [9], over 100 µM; in test [10] it was over 100 µM; in test [11], over 100 µM; in test [12], over 100 µM. Besides, the TGI in test [13], in [14], in [15], in test [16], in test [17] and in test [18] was over 100 µM throughout. The molecule also came in with a TGI in [19] of over 100 µM.
`O=[N+]([O-])c1ccc(-c2nnc(C34CC5CC(CC(C5)C3)C4)o2)cc1`: the TGI in [1], in [2], in test [3], in test [4], in [5] and in [6] was over 100 µM throughout. Also, the TGI in test [7], in test [8], in test [9], in [10], in [11] and in [12] was over 100 µM each time. Further, the TGI in test [13], in test [14], in [15], in test [16], in [17] and in [18] was over 100 µM throughout. For the same molecule, the TGI in [19] is over 100 µM.
With `CCN(CC)CCC(=O)c1ccc(Oc2ccc(Cl)cc2)cc1`, the TGI was 32.8 µM in test [1]; 25.8 µM in test [2]; 56.7 µM in test [3]; 48.7 µM in [4]; 28.6 µM in test [5]; 59.8 µM in [6]. Further, the TGI came out at 29.2 µM in test [7]; 34.5 µM in [8]; 58.1 µM in test [9]; 34.2 µM in test [10]; 37.9 µM in test [11]; 29.2 µM in test [12]. In addition, the TGI stood at 16.3 µM in test [13]; 29.9 µM in test [14]; 31.2 µM in test [15]; 32.6 µM in test [16]; 34 µM in [17]; 32 µM in [18]. The molecule also displayed a TGI in test [19] of 32 µM.
For `COc1cccc(-c2c(C#N)c(N)nc3c2CCS(=O)(=O)c2ccc(C)cc2-3)c1`, the TGI in test [1], in [2], in test [3], in test [4], in test [5] and in test [6] was over 100 µM throughout. The TGI in test [7], in test [8], in test [9], in test [10], in test [11] and in test [12] was over 100 µM throughout. The TGI in test [13], in test [14], in [15], in test [16], in [17] and in [18] was over 100 µM throughout. Also, in test [19], the TGI is over 100 µM.
